Assay results reported in patent US20240252488A1 (KOREA RESEARCH INSTITUTE OF CHEMICAL TECHNOLOGY, priority 2020, published 2024).

Assays:
MLKL = molecular target: T1, MLKL (Homo sapiens, UniProt Q8NB16); assay: Measurement of binding affinity with MLKL receptor (competitive binding assay, Kd); set-up: made in house; host or cells: HEK 293 cell line (T7 phage in E. coli BL21-derived host is also described)
T1 sequence (Q8NB16 1-471): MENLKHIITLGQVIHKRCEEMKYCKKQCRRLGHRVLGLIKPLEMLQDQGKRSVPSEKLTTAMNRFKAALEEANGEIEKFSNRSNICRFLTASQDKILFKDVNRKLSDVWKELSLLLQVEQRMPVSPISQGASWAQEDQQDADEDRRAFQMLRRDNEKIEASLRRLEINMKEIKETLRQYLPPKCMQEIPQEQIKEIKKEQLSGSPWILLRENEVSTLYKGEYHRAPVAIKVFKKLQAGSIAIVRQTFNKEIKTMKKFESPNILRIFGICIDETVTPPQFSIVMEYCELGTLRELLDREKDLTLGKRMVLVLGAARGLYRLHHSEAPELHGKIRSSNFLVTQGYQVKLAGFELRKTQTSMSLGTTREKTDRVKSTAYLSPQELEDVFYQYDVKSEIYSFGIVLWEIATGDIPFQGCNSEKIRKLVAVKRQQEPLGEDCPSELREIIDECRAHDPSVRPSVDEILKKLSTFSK
Outline: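 Kd comes from a bead-based competition format: compound-dependent loss of DNA-tagged, HEK 293-expressed MLKL capture, measured as eluate kinase by qPCR. Final DMSO is 0.9%.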

FADD−/− Jurkat cells = assay: Necroptosis inhibition assay, TNF-α-induced necroptosis (CellTiter-Glo 2.0); type: cell-based, human; conditions: TNF-α 15 ng/mL; for Necroptosis inhibition assay (Rescue %) 1 μM: compound 1 μM; for Necroptosis inhibition assay (Rescue %) 10 μM: compound 10 μM
Outline: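 Luminescent ATP measurement gave viability, from which cytotoxicity and necroptosis inhibition rate were derived. Before that, cells (5.0×10^5 cells/mL) saw compound at 0.1, 1 or 10 μM final for 30 minutes at room temperature, then TNF-α (15 ng/mL final) for 20 to 24 hours at 37° C.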

SMILES	Kd (MLKL)	Necroptosis inhibition assay (Rescue %) 1 μM (FADD−/− Jurkat cells)	Necroptosis inhibition assay (Rescue %) 10 μM (FADD−/− Jurkat cells)
Nc1ncc(C2=CCN(C(=O)CCCCCNC(=O)C3CN(c4ccc5c(c4)C(=O)N(C4CCC(=O)NC4=O)C5=O)C3)CC2)cc1C(=O)O[C@@H](C(=O)Nc1ccc(F)cc1)c1ccccc1 (stereo partly drawn) [TDH-092, (R)-2-((4-fluorophenyl)amino)-2-oxo-1-phenylethyl 6-amino-1′-(6-(1-(2-(2,6-dioxopiperidin-3-yl)-1,3-dioxoisoindolin-5-yl)azetidine-3-carboxamido)hexanoyl)-1′,2′,3′,6′-tetrahydro-[3,4′-bipyridine]-5-carboxylate]	120 nM	2.1%	–
Nc1ncc(C2=CCN(C(=O)COCCOCCNC(=O)C3CCN(c4cccc5c4C(=O)N(C4CCC(=O)NC4=O)C5=O)CC3)CC2)cc1C(=O)O[C@@H](C(=O)Nc1ccc(F)cc1)c1ccccc1 (stereo partly drawn) [TDH-088, (R)-2-((4-fluorophenyl)amino)-2-oxo-1-phenylethyl 6-amino-1′-(2-(2-(2-(1-(2-(2,6-dioxopiperidin-3-yl)-1,3-dioxoisoindolin-4-yl)piperidine-4-carboxamido)ethoxy)ethoxy)acetyl)-1′,2′,3′,6′-tetrahydro-[3,4′-bipyridine]-5-carboxylate]	33 nM	4.62%	–
Nc1ncc(C2=CCN(C(=O)CCCCCNC(=O)C3CCN(c4ccc5c(c4)C(=O)N(C4CCC(=O)NC4=O)C5=O)CC3)CC2)cc1C(=O)O[C@@H](C(=O)Nc1ccc(F)cc1)c1ccccc1 (stereo partly drawn) [TDH-074, (R)-2-((4-fluorophenyl)amino)-2-oxo-1-phenylethyl 6-amino-1′-(6-(1-(2-(2,6-dioxopiperidin-3-yl)-1,3-dioxoisoindolin-5-yl)piperidine-4-carboxamido)hexanoyl)-1′,2′,3′,6′-tetrahydro-[3,4′-bipyridine]-5-carboxylate]	74 nM	14.54%	3.61%
Nc1ncc(C2=CCN(C(=O)CCCCCNC(=O)CNc3ccc4c(c3)C(=O)N(C3CCC(=O)NC3=O)C4=O)CC2)cc1C(=O)O[C@@H](C(=O)Nc1ccc(F)cc1)c1ccccc1 (stereo partly drawn) [TDH-072, (R)-2-((4-fluorophenyl)amino)-2-oxo-1-phenylethyl 6-amino-1′-(6-(2-((2-(2,6-dioxopiperidin-3-yl)-1,3-dioxoisoindolin-5-yl)amino)acetamido)hexanoyl)-1′,2′,3′,6′-tetrahydro-[3,4′-bipyridine]-5-carboxylate]	30 nM	12.25%	1.53%
Nc1ncc(-c2ccc(N3CCN(CC4CCN(C(=O)CNc5cccc6c5C(=O)N(C5CCC(=O)NC5=O)C6=O)CC4)CC3)nc2)nc1C(=O)OC(C(=O)Nc1ccc(F)cc1)c1ccccc1 (stereo not shown) [TDH-232, 2-((4-fluorophenyl)amino)-2-oxo-1-phenylethyl 3-amino-6-(6-(4-((1-((2-(2,6-dioxopiperidin-3-yl)-1,3-dioxoisoindolin-4-yl)glycyl)piperidin-4-yl)methyl)piperazin-1-yl)pyridin-3-yl)pyrazine-2-carboxylate]	260 nM	3.46%	–
Cc1ncsc1-c1ccc(CNC(=O)[C@@H]2C[C@@H](O)CN2C(=O)[C@@H](NC(=O)CCC(=O)N2CCC(CN3CCC(n4cc(-c5cnc(N)c(C(=O)O[C@@H](C(=O)Nc6ccc(F)cc6)c6ccccc6)n5)cn4)CC3)CC2)C(C)(C)C)cc1 [TDH-212, (R)-2-((4-fluorophenyl)amino)-2-oxo-1-phenylethyl 3-amino-6-(1-(1-((1-(4-(((S)-1-((2S,4R)-4-hydroxy-2-((4-(4-methylthiazol-5-yl)benzyl)carbamoyl)pyrrolidin-1-yl)-3,3-dimethyl-1-oxobutan-2-yl)amino)-4-oxobutanoyl)piperidin-4-yl)methyl)piperidin-4-yl)-1H-pyrazol-4-yl)pyrazine-2-carboxylate]	11 nM	24.34%	49.14%
Nc1ncc(C2=CCN(C(=O)COCCOCCNC(=O)CNc3cccc4c3C(=O)N(C3CCC(=O)NC3=O)C4=O)CC2)cc1C(=O)O[C@@H](C(=O)Nc1ccc(F)cc1)c1ccccc1 (stereo partly drawn) [TDH-084, (R)-2-((4-fluorophenyl)amino)-2-oxo-1-phenylethyl 6-amino-1′-(2-(2-(2-(2-((2-(2,6-dioxopiperidin-3-yl)-1,3-dioxoisoindolin-4-yl)amino)acetamido)ethoxy)ethoxy)acetyl)-1′,2′,3′,6′-tetrahydro-[3,4′-bipyridine]-5-carboxylate]	19 nM	14.91%	3.95%
Nc1ncc(C2=CCN(C(=O)COCCOCCNC(=O)CNc3ccc4c(c3)C(=O)N(C3CCC(=O)NC3=O)C4=O)CC2)cc1C(=O)O[C@@H](C(=O)Nc1ccc(F)cc1)c1ccccc1 (stereo partly drawn) [TDH-085, (R)-2-((4-fluorophenyl)amino)-2-oxo-1-phenylethyl 6-amino-1′-(2-(2-(2-(2-((2-(2,6-dioxopiperidin-3-yl)-1,3-dioxoisoindolin-5-yl)amino)acetamido)ethoxy)ethoxy)acetyl)-1′,2′,3′,6′-tetrahydro-[3,4′-bipyridine]-5-carboxylate]	12 nM	5.02%	–
Nc1ncc(C2=CCN(C(=O)CCCCCNC(=O)CNc3cccc4c3C(=O)N(C3CCC(=O)NC3=O)C4=O)CC2)cc1C(=O)O[C@@H](C(=O)Nc1ccc(F)cc1)c1ccccc1 (stereo partly drawn) [TDH-079, (R)-2-((4-fluorophenyl)amino)-2-oxo-1-phenylethyl 6-amino-1′-(6-(2-((2-(2,6-dioxopiperidin-3-yl)-1,3-dioxoisoindolin-4-yl)amino)acetamido)hexanoyl)-1′,2′,3′,6′-tetrahydro-[3,4′-bipyridine]-5-carboxylate]	45 nM	–	0.94%
Nc1ncc(C2=CCN(C(=O)COCCOCCNC(=O)C3CN(c4cccc5c4C(=O)N(C4CCC(=O)NC4=O)C5=O)C3)CC2)cc1C(=O)O[C@@H](C(=O)Nc1ccc(F)cc1)c1ccccc1 (stereo partly drawn) [TDH-086, (R)-2-((4-fluorophenyl)amino)-2-oxo-1-phenylethyl 6-amino-1′-(2-(2-(2-(1-(2-(2,6-dioxopiperidin-3-yl)-1,3-dioxoisoindolin-4-yl)azetidine-3-carboxamido)ethoxy)ethoxy)acetyl)-1′,2′, 3′,6′-tetrahydro-[3,4′-bipyridine]-5-carboxylate]	41 nM	2.91%	–
Nc1ncc(-c2cnn(C3CCN(CC4CCN(c5cccc6c5C(=O)N(C5CCC(=O)NC5=O)C6=O)CC4)CC3)c2)nc1C(=O)N[C@@H](C(=O)Nc1ccc(F)cc1)c1ccccc1 (stereo partly drawn) [TDH-208, 3-amino-6-(1-(1-((1-(2-(2,6-dioxopiperidin-3-yl)-1,3-dioxoisoindolin-4-yl)piperidin-4-yl)methyl)piperidin-4-yl)-1H-pyrazol-4-yl)-N-((R)-2-((4-fluorophenyl)amino)-2-oxo-1-phenylethyl)pyrazine-2-carboxamide]	350 nM	–	15.28%
Nc1ncc(-c2ccc(N3CCN(CC4CCN(C(=O)C5CCN(c6cccc7c6C(=O)N(C6CCC(=O)NC6=O)C7=O)CC5)CC4)CC3)nc2)nc1C(=O)OC(C(=O)Nc1ccc(F)cc1)c1ccccc1 (stereo not shown) [TDH-230, 2-((4-fluorophenyl)amino)-2-oxo-1-phenylethyl 3-amino-6-(6-(4-((1-(1-(2-(2,6-dioxopiperidin-3-yl)-1,3-dioxoisoindolin-4-yl)piperidine-4-carbonyl)piperidin-4-yl)methyl)piperazin-1-yl)pyridin-3-yl)pyrazine-2-carboxylate]	140 nM	7.4%	10.64%
Nc1ncc(C2=CCN(C(=O)CCCCCNC(=O)COc3cccc4c3C(=O)N(C3CCC(=O)NC3=O)C4=O)CC2)cc1C(=O)O[C@@H](C(=O)Nc1ccc(F)cc1)c1ccccc1 (stereo partly drawn) [TDH-081, (R)-2-((4-fluorophenyl)amino)-2-oxo-1-phenylethyl 6-amino-1′-(6-(2-((2-(2,6-dioxopiperidin-3-yl)-1,3-dioxoisoindolin-4-yl)oxy)acetamido)hexanoyl)-1′,2′,3′,6′-tetrahydro-[3,4′-bipyridine]-5-carboxylate]	50 nM	6.8%	–
Nc1ncc(C2=CCN(C(=O)CCCCCNc3ccc4c(c3)C(=O)N(C3CCC(=O)NC3=O)C4=O)CC2)cc1C(=O)O[C@@H](C(=O)Nc1ccc(F)cc1)c1ccccc1 (stereo partly drawn) [TDH-075, (R)-2-((4-fluorophenyl)amino)-2-oxo-1-phenylethyl 6-amino-1′-(6-((2-(2,6-dioxopiperidin-3-yl)-1,3-dioxoisoindolin-5-yl)amino)hexanoyl)-1′,2′,3′,6′-tetrahydro-[3,4′-bipyridine]-5-carboxylate]	140 nM	10.02%	9.05%
